Source: patent publication US20050065208A1, “Benzofuranes and their use in the treatment of atrial fibrillation” (priority 2001, published 2005)
Read-outs that look alike come from different tables or passages of the source.

What was measured:
[1] = target: T1, IKs, slow component of the delayed rectifier K-current (Homo sapiens, UniProt P51787); set-up: key: Yes: The compound has been demonstrated to inhibit the particular current (reference within parenthesis).; No: The compound has been demonstrated to not inhibit the particular current (reference within parenthesis).; U: No data regarding interaction of the compound with the particular current has been found in the literature; conditions: Table 2, literature; cited from earlier work
[2] = target: T2, IK(Ado), adenosine activated K-current (Homo sapiens, UniProt P48544+P48549); set-up: key to Blocking activity on IK(Ado): Yes: The compound has been demonstrated to inhibit the particular current (reference within parenthesis).; No: The compound has been demonstrated to not inhibit the particular current (reference within parenthesis).; U: No data regarding interaction of the compound with the particular current has been found in the literature; conditions: cited from earlier work
T2 construct: electrophysiology technique applied to cardiomyocyte cultures; endogenous in cells
T2 sequence (P48549 1-501): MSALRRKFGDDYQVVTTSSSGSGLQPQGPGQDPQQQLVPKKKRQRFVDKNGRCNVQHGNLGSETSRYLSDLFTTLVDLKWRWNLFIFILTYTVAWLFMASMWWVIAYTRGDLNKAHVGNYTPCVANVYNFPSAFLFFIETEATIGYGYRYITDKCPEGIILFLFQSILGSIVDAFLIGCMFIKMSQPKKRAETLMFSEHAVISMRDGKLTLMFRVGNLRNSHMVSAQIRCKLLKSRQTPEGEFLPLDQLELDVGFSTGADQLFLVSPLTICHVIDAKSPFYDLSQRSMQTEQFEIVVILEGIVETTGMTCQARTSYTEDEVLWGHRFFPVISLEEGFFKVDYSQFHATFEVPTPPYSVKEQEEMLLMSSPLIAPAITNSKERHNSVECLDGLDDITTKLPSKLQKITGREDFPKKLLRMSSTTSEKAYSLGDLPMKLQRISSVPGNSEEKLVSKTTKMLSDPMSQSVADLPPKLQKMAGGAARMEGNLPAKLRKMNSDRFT
T2 sequence (P48544 1-419): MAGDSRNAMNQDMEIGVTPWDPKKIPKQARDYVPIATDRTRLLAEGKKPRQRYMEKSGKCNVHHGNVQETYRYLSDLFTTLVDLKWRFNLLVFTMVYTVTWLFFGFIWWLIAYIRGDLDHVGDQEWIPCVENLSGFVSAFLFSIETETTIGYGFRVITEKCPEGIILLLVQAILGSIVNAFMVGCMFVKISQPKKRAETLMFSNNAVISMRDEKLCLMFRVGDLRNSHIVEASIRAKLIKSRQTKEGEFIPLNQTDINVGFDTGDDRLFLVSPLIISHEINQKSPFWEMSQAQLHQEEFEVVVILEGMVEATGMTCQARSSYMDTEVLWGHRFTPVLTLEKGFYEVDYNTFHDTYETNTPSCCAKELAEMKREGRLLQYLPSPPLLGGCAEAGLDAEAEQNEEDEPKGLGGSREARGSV

[3] = system: triiodthyronine (T3)-signalling; assay: Antagonism of T3-signalling action in cells; format: cell-based; conditions: manuscript in preparation
[4] = system: IK1, inward rectifier K-current; set-up: key: Yes: The compound has been demonstrated to inhibit the particular current (reference within parenthesis).; No: The compound has been demonstrated to not inhibit the particular current (reference within parenthesis).; U: No data regarding interaction of the compound with the particular current has been found in the literature; conditions: Table 2, literature; cited from earlier work
[5] = target: T3, INa, depolarizing Na-current (Homo sapiens, UniProt Q14524); set-up: key: Yes: The compound has been demonstrated to inhibit the particular current (reference within parenthesis).; No: The compound has been demonstrated to not inhibit the particular current (reference within parenthesis).; U: No data regarding interaction of the compound with the particular current has been found in the literature; conditions: Table 2, literature; cited from earlier work
T3 sequence (Q14524 whole entry): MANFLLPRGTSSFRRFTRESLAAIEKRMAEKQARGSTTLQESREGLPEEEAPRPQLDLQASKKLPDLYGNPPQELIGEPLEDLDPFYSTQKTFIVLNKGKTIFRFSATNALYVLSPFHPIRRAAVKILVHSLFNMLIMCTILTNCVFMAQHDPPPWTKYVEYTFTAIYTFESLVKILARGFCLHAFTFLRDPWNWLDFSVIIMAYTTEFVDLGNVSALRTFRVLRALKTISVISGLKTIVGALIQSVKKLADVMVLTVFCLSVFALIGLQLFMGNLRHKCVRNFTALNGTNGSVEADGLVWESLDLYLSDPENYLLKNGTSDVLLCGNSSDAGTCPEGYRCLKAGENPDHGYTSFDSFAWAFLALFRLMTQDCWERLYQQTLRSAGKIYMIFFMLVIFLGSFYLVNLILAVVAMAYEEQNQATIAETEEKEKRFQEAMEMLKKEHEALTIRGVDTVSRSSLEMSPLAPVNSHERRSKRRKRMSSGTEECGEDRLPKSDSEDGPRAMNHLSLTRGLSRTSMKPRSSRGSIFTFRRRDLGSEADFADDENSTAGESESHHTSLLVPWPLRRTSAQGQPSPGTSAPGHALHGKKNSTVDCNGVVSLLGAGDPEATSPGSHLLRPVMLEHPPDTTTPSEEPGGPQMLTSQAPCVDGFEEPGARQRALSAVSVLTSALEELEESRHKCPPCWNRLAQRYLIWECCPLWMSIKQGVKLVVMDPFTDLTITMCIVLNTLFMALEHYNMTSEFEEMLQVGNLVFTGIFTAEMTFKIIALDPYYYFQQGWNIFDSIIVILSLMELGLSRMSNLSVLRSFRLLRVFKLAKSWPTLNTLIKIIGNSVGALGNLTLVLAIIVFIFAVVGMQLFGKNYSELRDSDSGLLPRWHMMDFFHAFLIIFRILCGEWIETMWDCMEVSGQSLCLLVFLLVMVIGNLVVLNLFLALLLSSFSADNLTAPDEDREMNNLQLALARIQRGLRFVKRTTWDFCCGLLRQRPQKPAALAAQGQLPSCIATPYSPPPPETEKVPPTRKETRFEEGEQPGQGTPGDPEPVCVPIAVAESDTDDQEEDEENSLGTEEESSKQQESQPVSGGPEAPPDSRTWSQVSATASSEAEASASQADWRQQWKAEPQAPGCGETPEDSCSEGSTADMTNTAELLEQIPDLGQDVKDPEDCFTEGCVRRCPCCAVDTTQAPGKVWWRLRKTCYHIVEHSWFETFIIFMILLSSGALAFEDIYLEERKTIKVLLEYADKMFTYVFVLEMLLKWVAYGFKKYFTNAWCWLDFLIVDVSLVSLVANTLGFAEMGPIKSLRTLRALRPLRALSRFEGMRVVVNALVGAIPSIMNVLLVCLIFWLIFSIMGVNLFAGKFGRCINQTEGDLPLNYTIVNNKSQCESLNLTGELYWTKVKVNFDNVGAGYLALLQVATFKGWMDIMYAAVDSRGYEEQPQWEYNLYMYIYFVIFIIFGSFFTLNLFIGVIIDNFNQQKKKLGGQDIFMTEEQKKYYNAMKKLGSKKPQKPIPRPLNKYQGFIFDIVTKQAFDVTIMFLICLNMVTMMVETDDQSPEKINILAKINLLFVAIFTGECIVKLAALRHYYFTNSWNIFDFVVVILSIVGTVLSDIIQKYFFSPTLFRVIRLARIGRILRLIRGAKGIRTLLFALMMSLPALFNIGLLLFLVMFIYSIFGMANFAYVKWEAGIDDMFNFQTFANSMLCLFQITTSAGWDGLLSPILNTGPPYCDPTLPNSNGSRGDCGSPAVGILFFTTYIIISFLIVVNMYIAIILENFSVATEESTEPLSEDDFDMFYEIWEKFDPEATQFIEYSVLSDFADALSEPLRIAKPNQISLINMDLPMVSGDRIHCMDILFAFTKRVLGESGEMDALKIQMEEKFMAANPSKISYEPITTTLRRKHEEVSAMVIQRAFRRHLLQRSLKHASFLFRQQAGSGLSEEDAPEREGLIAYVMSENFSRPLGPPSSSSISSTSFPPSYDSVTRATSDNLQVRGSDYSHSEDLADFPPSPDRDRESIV

[6] = target: T4, IK(ATP), ATP-sensitive K-current (Homo sapiens, UniProt Q14654); set-up: key: Yes: The compound has been demonstrated to inhibit the particular current (reference within parenthesis).; No: The compound has been demonstrated to not inhibit the particular current (reference within parenthesis).; U: No data regarding interaction of the compound with the particular current has been found in the literature; conditions: Table 2, literature; cited from earlier work
T4 construct: electrophysiology technique applied to cardiomyocyte cultures; endogenous in cells; current induced with dinitrophenole
T4 sequence (Q14654 whole entry): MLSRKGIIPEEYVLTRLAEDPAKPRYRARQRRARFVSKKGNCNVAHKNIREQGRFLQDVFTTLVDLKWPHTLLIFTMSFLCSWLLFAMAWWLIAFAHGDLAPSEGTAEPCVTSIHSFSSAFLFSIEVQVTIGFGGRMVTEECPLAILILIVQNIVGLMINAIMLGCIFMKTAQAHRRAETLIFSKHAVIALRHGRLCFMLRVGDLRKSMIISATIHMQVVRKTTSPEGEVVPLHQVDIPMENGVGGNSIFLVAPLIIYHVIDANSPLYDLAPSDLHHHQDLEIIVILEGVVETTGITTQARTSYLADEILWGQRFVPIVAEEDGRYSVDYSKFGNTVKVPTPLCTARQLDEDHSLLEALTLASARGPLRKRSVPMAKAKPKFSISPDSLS
T4 sequence (O60706 whole entry partner): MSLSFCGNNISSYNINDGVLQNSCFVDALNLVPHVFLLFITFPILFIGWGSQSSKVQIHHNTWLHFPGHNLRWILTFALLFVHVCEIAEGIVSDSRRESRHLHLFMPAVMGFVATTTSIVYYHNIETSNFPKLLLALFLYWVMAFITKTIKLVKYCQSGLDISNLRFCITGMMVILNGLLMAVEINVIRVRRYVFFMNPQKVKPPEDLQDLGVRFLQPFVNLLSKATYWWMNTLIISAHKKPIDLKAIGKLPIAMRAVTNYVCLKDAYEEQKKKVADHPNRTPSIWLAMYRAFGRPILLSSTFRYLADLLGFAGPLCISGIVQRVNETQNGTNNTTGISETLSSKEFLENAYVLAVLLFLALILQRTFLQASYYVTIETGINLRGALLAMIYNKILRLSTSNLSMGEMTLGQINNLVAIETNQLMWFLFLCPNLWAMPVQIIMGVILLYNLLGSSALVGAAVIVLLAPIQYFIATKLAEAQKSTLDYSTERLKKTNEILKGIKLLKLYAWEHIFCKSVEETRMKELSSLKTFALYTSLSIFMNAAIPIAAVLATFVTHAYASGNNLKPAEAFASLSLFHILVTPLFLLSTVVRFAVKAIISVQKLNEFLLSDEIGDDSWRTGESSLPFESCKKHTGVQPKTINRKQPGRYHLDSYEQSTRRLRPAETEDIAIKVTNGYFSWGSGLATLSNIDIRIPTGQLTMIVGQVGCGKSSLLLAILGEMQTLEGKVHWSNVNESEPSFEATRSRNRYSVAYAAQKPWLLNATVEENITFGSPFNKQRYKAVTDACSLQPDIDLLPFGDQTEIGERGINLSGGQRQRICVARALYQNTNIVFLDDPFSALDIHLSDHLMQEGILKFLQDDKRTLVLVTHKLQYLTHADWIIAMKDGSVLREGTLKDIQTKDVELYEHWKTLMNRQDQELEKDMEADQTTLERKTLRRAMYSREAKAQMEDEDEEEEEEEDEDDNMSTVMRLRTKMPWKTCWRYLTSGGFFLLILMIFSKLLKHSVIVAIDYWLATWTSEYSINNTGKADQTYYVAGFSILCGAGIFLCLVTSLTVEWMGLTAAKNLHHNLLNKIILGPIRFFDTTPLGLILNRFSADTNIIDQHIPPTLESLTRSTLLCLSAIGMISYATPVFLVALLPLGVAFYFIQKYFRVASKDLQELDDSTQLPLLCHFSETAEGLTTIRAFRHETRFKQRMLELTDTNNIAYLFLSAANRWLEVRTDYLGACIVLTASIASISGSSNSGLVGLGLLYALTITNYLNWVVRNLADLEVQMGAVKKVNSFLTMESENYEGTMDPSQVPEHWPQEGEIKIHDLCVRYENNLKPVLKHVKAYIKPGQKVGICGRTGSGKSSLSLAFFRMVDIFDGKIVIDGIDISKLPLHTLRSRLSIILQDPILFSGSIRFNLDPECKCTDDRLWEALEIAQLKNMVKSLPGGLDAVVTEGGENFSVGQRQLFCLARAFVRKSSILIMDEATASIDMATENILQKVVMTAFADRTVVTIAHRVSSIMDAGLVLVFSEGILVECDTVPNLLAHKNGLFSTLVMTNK

[7] = target: T5, IK(ACh), AcetylCholine activated K-current (Homo sapiens, UniProt P48544+P48549); set-up: key to Blocking activity on IK(ACh): Yes: The compound has been demonstrated to inhibit the particular current (reference within parenthesis).; No: The compound has been demonstrated to not inhibit the particular current (reference within parenthesis).; U: No data regarding interaction of the compound with the particular current has been found in the literature; conditions: cited from earlier work
T5 construct: electrophysiology technique applied to cardiomyocyte cultures; endogenous in cells
T5 sequence (P48549 1-501): T2 sequence (P48549 1-501)
T5 sequence (P48544 1-419): T2 sequence (P48544 1-419)

[8] = system: Ito, transient outward K-current; assay: Voltage clamp: transient outward K-current; format: cell-based; set-up: key: Yes: The compound has been demonstrated to inhibit the particular current (reference within parenthesis).; No: The compound has been demonstrated to not inhibit the particular current (reference within parenthesis).; U: No data regarding interaction of the compound with the particular current has been found in the literature; conditions: Table 2, own voltage clamp data
Text: (§1) Results from voltage clamp experiments with compounds of the invention on other ion-currents than IK(Ado), IK(ACh) and IK(ATP) are included in Table 2.

[9] = target: T2, IK(Ado), adenosine activated K-current; assay: Voltage clamp on cardiomyocyte cultures: inhibition of adenosine-induced K-current; format: cell-based; set-up: key to Blocking activity on IK(Ado): Yes: The compound has been demonstrated to inhibit the particular current (reference within parenthesis).; No: The compound has been demonstrated to not inhibit the particular current (reference within parenthesis).; U: No data regarding interaction of the compound with the particular current has been found in the literature; conditions: for Blocking activity on IK(Ado): Table 2, own voltage clamp data; for inhibition at 50 µM: read-out: Inhibition of IK (Ado) Induced by Adenosine, % Inh
Text: (§2) In the present invention acute and chronic effects of various compounds have been investigated by using electrophysiology technique applied to cardiomyocyte cultures.
(§3) The inhibitory effects occur within seconds after induction of the current with ACh, Ado or dinitrophenole (DNP reduces intracellular ATP). The acute inhibitory effects caused by the compounds of the present invention on these K-currents in cardiac muscle tissue had not previously been discovered. The reasons for this include the fact that these ligand activated K-currents (IK(Ado), IK(ACh) and IK(ATP)) are preferentially active in the atrial cardiomyocytes (Workman A J et al. Cardiovasc Res 1999 September;43(4):974-84; Koumi S-I, and Wasserstorm A. American Journal of Physiology 266[35], H1812-H1821. 1994), while previous studies have been carried out with tissue from cardiac ventricles. Furthermore, IK(Ado) and IK(ACh) must first be induced via the M2 or A1 receptor (with ACh and Ado respectively) before any inhibition can be observed. Without any agonist at the extracellular site of the membrane these ligand-gated channels probably have only minor roles in shaping repolarization but, when activated by extracellular acetylcholine or adenosine, they can substantially shorten action potential duration in the atrium (Tristani-Firouzi M et al. Am J Med 2001 January; 110(1):50-9).
(§4) The following Table 1 illustrates the potency (IC50-values) of compounds of formulae I and II compared with other anti-arrhythmic drugs to inhibit the transmembrane currents IK(Ado) and IK(ACh) after stimulation of the currents with Adenosine or Acetylcholine (or Carbachol).

[10] = system: IK1, inward rectifier K-current; assay: Voltage clamp: inward rectifier K-current; format: cell-based; set-up: key: Yes: The compound has been demonstrated to inhibit the particular current (reference within parenthesis).; No: The compound has been demonstrated to not inhibit the particular current (reference within parenthesis).; U: No data regarding interaction of the compound with the particular current has been found in the literature; conditions: Table 2, own voltage clamp data
Text: as §1

[11] = target: T1, IKs, slow component of the delayed rectifier K-current; assay: Voltage clamp: slow component of the delayed rectifier K-current; format: cell-based; set-up: key: Yes: The compound has been demonstrated to inhibit the particular current (reference within parenthesis).; No: The compound has been demonstrated to not inhibit the particular current (reference within parenthesis).; U: No data regarding interaction of the compound with the particular current has been found in the literature; conditions: Table 2, own voltage clamp data
Text: as §1

[12] = target: T3, INa, depolarizing Na-current; assay: Voltage clamp: depolarizing Na-current; format: cell-based; set-up: key: Yes: The compound has been demonstrated to inhibit the particular current (reference within parenthesis).; No: The compound has been demonstrated to not inhibit the particular current (reference within parenthesis).; U: No data regarding interaction of the compound with the particular current has been found in the literature; conditions: Table 2, own voltage clamp data
Text: as §1

[13] = target: T5, IK(ACh), AcetylCholine activated K-current; assay: Voltage clamp on cardiomyocyte cultures: inhibition of K-current induced by ACh or carbachol; format: cell-based; set-up: key to Blocking activity on IK(ACh): Yes: The compound has been demonstrated to inhibit the particular current (reference within parenthesis).; No: The compound has been demonstrated to not inhibit the particular current (reference within parenthesis).; U: No data regarding interaction of the compound with the particular current has been found in the literature; conditions: for Blocking activity on IK(ACh): Table 2, own voltage clamp data; for inhibition at 50 µM: read-out: Inhibition of IK (ACh) (Induced by ACh or Carbachol), % Inh
Text: as §2, §3, §4

[14] = target: T4, IK(ATP), ATP-sensitive K-current; assay: Voltage clamp on cardiomyocyte cultures: inhibition of ATP-sensitive K-current (induced with DNP); format: cell-based; set-up: key: Yes: The compound has been demonstrated to inhibit the particular current (reference within parenthesis).; No: The compound has been demonstrated to not inhibit the particular current (reference within parenthesis).; U: No data regarding interaction of the compound with the particular current has been found in the literature; conditions: Table 2, own voltage clamp data
Text: as §2, §3

SMILES | Blocking activity on IKs [1] | Blocking activity on IK(Ado) ([2]; Table 2, literature) | Block of ligand-gated current IK(Ado), in words ([2]; Watanabe et al.) | IC50 ([2]; current induced by adenosine, literature value, read-out: Inhibition of IK (Ado) Induced by Adenosine (IC50)) [nM] | Antagonism of triiodthyronine (T3)-signalling action in cells [3] | Blocking activity on IK1 [4] | Blocking activity on INa [5] | Blocking activity on IK(ATP) [6] | Blocking activity on IK(ACh) ([7]; Table 2, literature) | Block of ligand-gated current IK(ACh), in words ([7]; Watanabe et al.) | IC50 ([7]; current induced by ACh or carbachol, literature value, read-out: Inhibition of IK (ACh) (Induced by ACh or Carbachol) (IC50)) [nM] | Blocking activity on Ito [8] | Blocking activity on IK(Ado) [9] | inhibition at 50 µM [9] [%] | Blocking activity on IK1 [10] | Blocking activity on IKs [11] | Blocking activity on INa [12] | Blocking activity on IK(ACh) [13] | inhibition at 50 µM [13] [%] | Blocking activity on IK(ATP) [14]
CCCCc1oc2ccccc2c1C(=O)c1cc(I)c(OCCN(CC)CC)c(I)c1 [Amiodarone] | Yes | Yes | does block | 2000 | antagonize | Yes | Yes | Yes | Yes | does block | 2000 | – | – | – | – | – | – | – | – | –
Cc1oc2ccccc2c1Cc1cc(C(C)C)c(OCC(=O)O)c(C(C)C)c1 [Example E4, 2-methyl-3-(3,5-diisopropyl-4-carboxymethoxybenzyl)benzofuran] | – | – | – | – | – | – | – | – | – | – | – | No | Yes | 100 | No | No | No | Yes | 100 | Yes
Cc1oc2ccccc2c1Cc1cc(I)c(OCC(=O)O)c(I)c1 [Example E6, 2-methyl-3-(3,5-diiodo-4-carboxymethoxy-benzyl)benzofuran] | – | – | – | – | – | – | – | – | – | – | – | No | Yes | 100 | No | No | No | Yes | 100 | Yes
